Patent publication US20160008490A1, “METAL CHELATE COMPOUNDS FOR BINDING TO THE PLATELET SPECIFIC GLYCOPROTEIN IIB/IIIA” (BAYER PHARMA AKTIENGESELLSCHAFT, priority 2013, published 2016)

How the values were obtained:
[1] = test system: human activated platelets; test: Binding of investigated compounds to human activated platelets (ICP-MS of Gd in pellet and supernatant); type: cell-based; conditions: ADP-activated platelet-rich plasma, 20 minutes, pellet washed
Protocol: For each experiment fresh blood was taken from a volunteer using 10 mL citrate-tubes (Sarstedt S-Monovette 02.1067.001, 10 mL, Citrate 3.13%). The 10 mL citrate-tubes were carefully inverted 10 times to mix blood and anticoagulant. The tubes were stored in an incubator at a temperature of 37° C. until centrifugation (Heraeus miniTherm CTT with integrated rotation- and turning device, turning speed: 19 rotations per minute, Heraeus Instruments GmbH, Hanau/Germany).
For plasma preparation tube centrifugation was carried out for 15 minutes at 1811 g at room temperature (Eppendorf, Centrifuge 5810R). Blood was centrifuged 15 minutes at 201 g at room temperature to produce platelet-rich plasma. The tubes were stored for 30 min at room temperature to get a better separation. The separated platelet-rich plasma was finally centrifuged for further 3 min at 453 g to remove the remaining erythrocytes. The platelet-rich plasma was activated using a final concentration of 5 μM Adenosindiphosphate (ADP, Sigma). The activated platelet-rich plasma was incubated 20 minutes with different concentrations of gadolinium-labeled compound and subsequently was centrifuged 3 minutes at 1360 g. 20 μL of incubation solution was taken to determine the concentration (n=3). […] The gadolinium concentration of supernatant and pellet was determined using an inductively coupled plasma mass spectrometry (ICP-MS Agilent 7500a).
The results for incubation concentration of 1 μM gadolinium-labeled compound are summarized in table 3 (in comparison to Gadovist® standard dose: 100 μmol Gd/kg body weight).

[2] = target: T1, human GP IIb/IIIa receptor (Homo sapiens, UniProt P05106+P08514); test: GPIIb/IIIa affinity assay (displacement of tritiated reference compound from immobilized receptor); type: binding; conditions: purified human GPIIb/IIIa, 60 nM 3H-labeled reference compound, 1 hour at room temperature
T1 construct: human GPIIb/IIIa purified from human platelets was immobilized on a 96-well solid plate; purchased Enzyme Research Laboratories Inc. (South Bend, Ind.); host or cells: human platelets (natural source, detergent-solubilised)
T1 sequence (P08514 32-887 limits assumed): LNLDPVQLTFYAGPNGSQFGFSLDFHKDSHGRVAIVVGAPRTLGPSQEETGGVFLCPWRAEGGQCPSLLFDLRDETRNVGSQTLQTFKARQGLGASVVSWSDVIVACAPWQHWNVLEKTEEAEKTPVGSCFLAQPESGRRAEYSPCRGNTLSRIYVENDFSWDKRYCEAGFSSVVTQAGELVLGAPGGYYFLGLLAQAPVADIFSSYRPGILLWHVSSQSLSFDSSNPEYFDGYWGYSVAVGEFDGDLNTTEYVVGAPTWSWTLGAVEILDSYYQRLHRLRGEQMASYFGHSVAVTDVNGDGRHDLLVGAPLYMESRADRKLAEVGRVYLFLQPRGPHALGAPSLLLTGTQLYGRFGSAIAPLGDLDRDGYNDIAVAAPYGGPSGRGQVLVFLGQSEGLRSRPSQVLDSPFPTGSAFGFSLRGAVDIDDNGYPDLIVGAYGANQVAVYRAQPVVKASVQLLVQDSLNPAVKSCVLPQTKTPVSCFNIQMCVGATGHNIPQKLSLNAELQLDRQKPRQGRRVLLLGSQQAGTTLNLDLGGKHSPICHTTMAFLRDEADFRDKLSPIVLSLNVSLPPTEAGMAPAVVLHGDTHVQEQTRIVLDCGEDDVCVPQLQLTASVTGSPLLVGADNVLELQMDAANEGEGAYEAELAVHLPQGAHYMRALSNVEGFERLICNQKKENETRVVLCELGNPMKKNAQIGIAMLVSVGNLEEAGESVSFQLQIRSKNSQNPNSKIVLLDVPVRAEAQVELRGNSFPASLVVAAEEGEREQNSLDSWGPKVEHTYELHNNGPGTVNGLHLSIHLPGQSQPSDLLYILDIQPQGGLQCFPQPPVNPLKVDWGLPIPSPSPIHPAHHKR
T1 sequence (P08514 891-1039 partner limits assumed): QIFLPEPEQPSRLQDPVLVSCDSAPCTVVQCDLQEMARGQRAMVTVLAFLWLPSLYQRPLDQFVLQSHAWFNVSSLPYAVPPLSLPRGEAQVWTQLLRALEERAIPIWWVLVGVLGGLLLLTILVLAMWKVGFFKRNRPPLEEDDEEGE
T1 sequence (P05106 27-788): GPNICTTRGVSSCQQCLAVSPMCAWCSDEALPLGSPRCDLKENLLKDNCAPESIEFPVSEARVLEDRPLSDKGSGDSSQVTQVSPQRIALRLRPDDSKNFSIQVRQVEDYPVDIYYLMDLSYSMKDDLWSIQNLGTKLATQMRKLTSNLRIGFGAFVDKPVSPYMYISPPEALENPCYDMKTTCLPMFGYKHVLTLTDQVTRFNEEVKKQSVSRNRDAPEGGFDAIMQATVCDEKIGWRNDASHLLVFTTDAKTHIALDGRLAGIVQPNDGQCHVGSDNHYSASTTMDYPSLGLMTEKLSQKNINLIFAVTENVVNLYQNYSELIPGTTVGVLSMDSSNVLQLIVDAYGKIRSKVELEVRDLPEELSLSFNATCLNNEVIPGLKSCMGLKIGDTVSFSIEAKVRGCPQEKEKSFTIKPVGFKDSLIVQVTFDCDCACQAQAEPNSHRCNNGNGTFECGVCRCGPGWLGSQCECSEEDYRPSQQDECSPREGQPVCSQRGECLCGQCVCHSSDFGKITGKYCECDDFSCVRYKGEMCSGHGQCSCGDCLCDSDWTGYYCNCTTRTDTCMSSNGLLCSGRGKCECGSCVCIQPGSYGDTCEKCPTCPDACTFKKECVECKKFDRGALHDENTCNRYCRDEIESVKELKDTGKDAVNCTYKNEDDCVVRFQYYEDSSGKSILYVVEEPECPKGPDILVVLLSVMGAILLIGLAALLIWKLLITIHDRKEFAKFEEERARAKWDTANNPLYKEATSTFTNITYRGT
Protocol: Affinity assay: In the first step human GPIIb/IIIa purified from human platelets was immobilized on a 96-well solid plate. After 48 hours the plates were washed and the unspecific binding sites were blocked with Roti®-Block. 2. In the next step, the plates were simultaneously incubated with a tritium labeled known GPIIb/IIIa binder (^3H) mixed with increasing concentrations of the novel compounds (inhibitor). The higher the affinity of the inhibitor, the lower the bound fraction of the tritiated known GPIIb/IIIa binder (^3H) was. The fraction of tritiated compound (^3H), which is not displaced by inhibitor, was measured in a microplate scintillation counter.
Purified human glycoprotein IIb/IIIa (20 mM Tris-HCl, 0.1 M NaCl, 0.1% Triton X-100, 1 mM CaCl2, 0.05% NaN3, 50% Glycerol, pH 7.4) was purchased from Enzyme Research Laboratories Inc. (South Bend, Ind.). The GPIIb/IIIa receptor was diluted in phosphate-buffered saline (Dulbecco's Phosphate Buffered Saline (D-PBS (+)) with calcium and magnesium, GIBCO®, Invitrogen) with 0.01% bovine serum albumin (albumin from bovine serum—lyophilized powder, 96%, Sigma).
The GPIIb/IIIa receptor was immobilized 48 hours at least (100 μL per well, 48 to maximum 96 hours) on a 96-well solid plate (Immuno Plate MaxiSorp™, Nunc, Roskilde, Denmark) at 277 K to 280 K and at a concentration of 0.1 μg per well to 1 μg per well. As negative control one row of the plate (n=8) was incubated just with 2% bovine serum albumin (200 μL per well, albumin from bovine serum—lyophilized powder, ≧96%, Sigma, diluted in D-PBS (+)).
After washing three times with the wash buffer (230 μL per well, Dulbecco's Phosphate Buffered Saline (D-PBS (−)) contains no calcium or magnesium, GIBCO®, Invitrogen) residual exposed plastic and unspecific binding sites were blocked by incubating the plate with a special blocking solution (200 μL per well, Roti®-Block, Car Roth GmbH Co KG, Karlsruhe) containing 2% bovine serum albumin (Albumin from bovine serum—lyophilized powder, ≧96%, Sigma) 1 hour at room temperature.
After washing three times with the wash buffer 50 μL of tritiated reference compound (60 nM, ^3H-labeled compound) and 50 μL of novel compound (inhibitor) were simultaneously added to each well and incubated for 1 hour at room temperature. Several concentrations of each novel inhibitor (0.1, 1, 2, 5, 10, 20 50, 100, 200, 500, 1000, 2000, 5000, 10000 and 20000 nM) were investigated. At each concentration of inhibitor a fourfold determination was performed.
The maximum value of tritiated reference compound was determined without addition of inhibitor (n=8). To exclude unspecific binding of ^3H— reference compound wells without glycoprotein receptors were used as negative controls (n=12, identically treated just without GPIIb/IIIa receptors).
After one hour the plate was washed three times with phosphate-buffered saline (200 μL per well, Dulbecco's Phosphate Buffered Saline (D-PBS (+)), GIBCO®, Invitrogen). Following 140 μL of liquid scintillation cocktail (MicroScint™ 40 aqueous, Perkin Elmer) was added to each well. After 15 min at room temperature the plates were measured at the microplate scintillation counter (TopCount NXT v2.13, Perkin Elmer, Packard Instrument Company).
In the first step human glycoprotein IIb/IIIa, which is purified from human platelets, was immobilized on a 96-well solid plate. After 48 hours at least the plates were washed and the unspecific binding sites were blocked with Roti®-Block. In the next step, the plates were simultaneously incubated with a tritium labeled reference compound and the novel small molecule compound (inhibitor). The higher the affinity of the inhibitor, the smaller is the bound fraction of reference compound. The fraction of tritiated reference compound, which is not displaced by inhibitor, was measured at a microplate scintillation counter. The higher the affinity of the inhibitor, the smaller is the bound fraction of tritium-labeled reference compound. […]

[3] = incubation concentration 1 μM molecule

SMILES	Concentration within platelet pellet [1, 3] [μM Gd]	IC50 [2] [nM]	Concentration within platelet pellet ([1]; incubation concentration 0.8 μM molecule) [μM Gd]
CC(C(=O)NCC(=O)NCC(NC(=O)CNC(=O)C(C)N1CCN(CC(=O)O)CCN(CC(=O)O)CCN(CC(=O)O)CC1)C(=O)NCC(NC(=O)C(CNC(=O)CNC(=O)C(C)N1CCN(CC(=O)O)CCN(CC(=O)O)CCN(CC(=O)O)CC1)NC(=O)CNC(=O)C(C)N1CCN(CC(=O)O)CCN(CC(=O)O)CCN(CC(=O)O)CC1)C(=O)NCCCc1ccc(C#Cc2cncc([C@H](CC(=O)O)NC(=O)[C@@H]3CCCN(C(=O)CCC4CCNCC4)C3)c2)cc1)N1CCN(CC(=O)O)CCN(CC(=O)O)CCN(CC(=O)O)CC1 (stereo partly drawn) [Example 11, Tetragadolinium 2,3-bis({2,3-bis[(N-{2-[4,7,10-tris(carboxylatomethyl)-1,4,7,10-tetraaza-cyclododecan-1-yl]propanoyl}glycyl)amino]propanoyl}amino)-N-(3-{4-[(5-{(1S)-2-carboxy-1-[({(3R)-1-[3-(piperidin-4-yl)propanoyl]piperidin-3-yl}carbonyl)amino]ethyl}-pyridin-3-yl)ethynyl]phenyl}propyl)propanamide]	19.9 ± 0.9	26	
CC(C(=O)NCC(=O)NC[C@H](NC(=O)CNC(=O)C(C)N1CCN(CC(=O)O)CCN(CC(=O)O)CCN(CC(=O)O)CC1)C(=O)NCCCc1ccc(C#Cc2cncc([C@H](CC(=O)O)NC(=O)[C@@H]3CCCN(C(=O)CCC4CCNCC4)C3)c2)cc1)N1CCN(CC(=O)O)CCN(CC(=O)O)CCN(CC(=O)O)CC1 (stereo partly drawn) [Example 10, Digadolinium N-{2-[4,7,10-tris(carboxylatomethyl)-1,4,7,10-tetraazacyclododecan-1-yl]-propanoyl}glycyl-N-(3-{4-[(5-{(1S)-2-carboxy-1-[({(3R)-1-[3-(piperidin-4-yl)propanoyl]-piperidin-3-yl}carbonyl)amino]ethyl}pyridin-3-yl)ethynyl]phenyl}propyl)-3-[(N-{2-[4,7,10-tris(carboxylatomethyl)-1,4,7,10-tetraazacyclododecan-1-yl]propanoyl}glycyl)-amino]alaninamide]	13.9 ± 0.3	16	
C[C@@H](C(=O)NCC(=O)OCCC#Cc1cncc([C@H](CC(=O)O)NC(=O)[C@@H]2CCCN(C(=O)CCC3CCNCC3)C2)c1)N1CCN(CC(=O)O)CCN(CC(=O)O)CCN(CC(=O)O)CC1 [Example 1, Gadolinium 2,2′,2″-(10-{(2S)-1-[(2-{[4-(5-{(1S)-2-carboxy-1-[({(3R)-1-[3-(piperidin-4-yl)-propanoyl]piperidin-3-yl}carbonyl)amino]ethyl}pyridin-3-yl)but-3-yn-1-yl]oxy}-2-oxo-ethyl)amino]-1-oxopropan-2-yl}-1,4,7,10-tetraazacyclododecane-1,4,7-triyl)triacetate]		29	
CC(C(=O)NCC(=O)NCC(NC(=O)CNC(=O)C(C)N1CCN(CC(=O)O)CCN(CC(=O)O)CCN(CC(=O)O)CC1)C(=O)NCC(NC(=O)C(CNC(=O)CNC(=O)C(C)N1CCN(CC(=O)O)CCN(CC(=O)O)CCN(CC(=O)O)CC1)NC(=O)CNC(=O)C(C)N1CCN(CC(=O)O)CCN(CC(=O)O)CCN(CC(=O)O)CC1)C(=O)NCCCCc1cccc(CCc2cncc([C@H](CC(=O)O)NC(=O)[C@@H]3CCCN(C(=O)CCC4CCNCC4)C3)c2)c1)N1CCN(CC(=O)O)CCN(CC(=O)O)CCN(CC(=O)O)CC1 (stereo partly drawn) [Example 9, Tetragadolinium 2,3-bis({2,3-bis[(N-{2-[4,7,10-tris(carboxylatomethyl)-1,4,7,10-tetraazacyclododecan-1-yl]propanoyl}glycyl)amino]propanoyl}amino)-N-(4-{3-[(5-{(1S)-2-carboxy-1-[({(3R)-1-[3-(piperidin-4-yl)propanoyl]piperidin-3-yl}carbonyl)amino]ethyl}pyridin-3-yl)ethyl]phenyl}butyl)propanamide]		32	21.1 ± 9.6
